Results as given in patent publication US20250382344A1, “Soluble GLP1/GIP/NPY2 Receptor Triple Agonists” (Boehringer Ingelheim International GmH, priority 2024, published 2025).
Like-named read-outs stand apart in the source and are kept apart here.

Assays:
[1] = biological target: T1, hGLP1R (Homo sapiens, UniProt P43220); assay: hGLP1R CreLuc assay in 0.5% and 100% plasma (HEK-293 CRE-luciferase reporter cells); format: cell-based; conditions: HEK-293 reporter cells
T1 construct: expressed in transfected cells; host or cells: HEK-293 CRE-luciferase reporter cells
T1 sequence (P43220 24-463): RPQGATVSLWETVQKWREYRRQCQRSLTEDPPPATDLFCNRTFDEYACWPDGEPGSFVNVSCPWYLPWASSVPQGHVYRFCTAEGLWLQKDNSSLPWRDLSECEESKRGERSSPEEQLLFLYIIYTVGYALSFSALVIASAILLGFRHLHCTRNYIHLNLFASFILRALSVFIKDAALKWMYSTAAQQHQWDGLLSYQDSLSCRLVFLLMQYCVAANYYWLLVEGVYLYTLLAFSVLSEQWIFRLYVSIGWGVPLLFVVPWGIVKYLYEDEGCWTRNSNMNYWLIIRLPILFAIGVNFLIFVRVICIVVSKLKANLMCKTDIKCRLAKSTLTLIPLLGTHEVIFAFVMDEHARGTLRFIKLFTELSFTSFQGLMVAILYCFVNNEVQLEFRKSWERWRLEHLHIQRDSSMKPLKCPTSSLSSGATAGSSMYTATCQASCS

[2] = Solubility in 0.1 M phosphate buffer at pH 7; format: physicochemical; conditions: 0.1 M phosphate buffer at pH 7, 10 mg/mL final peptide concentration, shaking 2 hours at room temperature, peptides as TFA-salts, measured sample pH 6.5-7.0
[3] = Mouse PK after intravenous application; format: in vivo; conditions: plasma, male NMRI mice, intravenous 30-60 nmol/kg, non-compartmental analysis
Experimental: Pharmacokinetic parameters of the peptides were determined after intravenous application to NMRI mice (Naval Medical Research Institute mice). Male NMRI mice were obtained from Janvier Laboratories (France) weighing 30 g to 40 g. Mice were housed in standard cages with a 12:12 hours light:dark cycle and standard food and water access ad libitum. Each test peptide was dissolved in 50 mM phosphate buffer (pH 7.4)/3.5% mannitol. Intravenous application of 30-60 nmol/kg was performed via the tail vein. Serial blood samples from conscious mice were collected from the saphenous vein in EDTA-containing vials at different time points up to 56 hours post-dosing. Subsequently, plasma was prepared by centrifugation for 5 minutes at approximately 5000 rpm and stored at −20° C. until quantification of the peptide plasma levels by liquid chromatography mass spectrometry (LC-MS). Individual plasma concentration-time profiles were analysed by a non-compartmental approach and the resulting pharmacokinetic parameters were calculated.

[4] = biological target: T2, hGIPR (Homo sapiens, UniProt P48546); assay: hGIPR CreLuc assay in 0.5% and 100% plasma (CHO CRE-luciferase reporter cells); format: cell-based
T2 construct: expressed in transfected cells; host or cells: CHO CRE-luciferase reporter cells
T2 sequence (P48546 22-466): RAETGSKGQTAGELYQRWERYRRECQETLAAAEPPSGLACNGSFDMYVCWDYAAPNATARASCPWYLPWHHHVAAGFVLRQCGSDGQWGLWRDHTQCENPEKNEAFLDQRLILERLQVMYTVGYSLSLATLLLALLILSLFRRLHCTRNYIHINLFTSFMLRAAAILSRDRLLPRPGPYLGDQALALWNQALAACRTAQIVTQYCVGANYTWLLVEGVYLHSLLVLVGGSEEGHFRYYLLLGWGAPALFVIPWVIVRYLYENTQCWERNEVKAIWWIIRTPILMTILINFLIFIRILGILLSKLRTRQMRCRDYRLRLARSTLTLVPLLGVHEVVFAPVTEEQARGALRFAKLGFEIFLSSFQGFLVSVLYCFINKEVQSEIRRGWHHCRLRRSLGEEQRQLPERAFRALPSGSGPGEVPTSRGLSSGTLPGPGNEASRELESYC

[5] = biological target: T3, hNPY2R (Homo sapiens, UniProt P49146); assay: hNPY2R CreLuc assay in 0.5% and 100% plasma (HEK-293 CRE-luciferase reporter cells); format: cell-based; conditions: 100% human plasma, HEK-293 reporter cells, read-out: hNPY2R 100% hP
T3 construct: expressed in transfected cells; host or cells: HEK-293 CRE-luciferase reporter cells
T3 sequence (P49146 1-381): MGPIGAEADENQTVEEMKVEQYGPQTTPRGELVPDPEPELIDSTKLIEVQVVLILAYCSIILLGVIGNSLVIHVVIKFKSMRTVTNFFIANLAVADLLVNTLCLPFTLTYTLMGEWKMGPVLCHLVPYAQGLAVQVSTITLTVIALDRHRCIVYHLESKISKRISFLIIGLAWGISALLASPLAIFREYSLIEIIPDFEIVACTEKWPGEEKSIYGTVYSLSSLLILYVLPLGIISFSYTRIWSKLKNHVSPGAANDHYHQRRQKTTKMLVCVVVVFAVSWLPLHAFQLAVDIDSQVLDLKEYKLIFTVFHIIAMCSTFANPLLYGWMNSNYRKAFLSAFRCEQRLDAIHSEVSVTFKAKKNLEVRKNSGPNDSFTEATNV

[6] = 0.5% human plasma, read-out: hGLP1R 0.5% hP
[7] = 0.5% human plasma, read-out: hGIPR 0.5% hP

Row | SMILES | EC50 [1, 6] [pM] | solubility at 2 h [2] [µg/mL] | MRT [3] [h] | EC50 [4, 7] [pM] | EC50 ([4]; 100% human plasma, read-out: hGIPR 100% hP) [pM] | EC50 ([1]; 100% human plasma, read-out: hGLP1R 100% hP) [pM] | EC50 [5] [pM] | solubility ([2]; read-out: Solubility) [µg/mL]
1 | CC[C@H](C)[C@H](NC(=O)[C@H](CC(C)C)NC(=O)[C@H](Cc1c[nH]cn1)NC(=O)[C@H](CCCNC(=N)N)NC(=O)[C@@H](NC(=O)[C@H](Cc1ccccc1)NC(=O)[C@H](C)NC(=O)C(C)(C)NC(=O)[C@H](CCC(N)=O)NC(=O)[C@H](C)NC(=O)[C@H](CCC(N)=O)NC(=O)[C@H](CCCCN)NC(=O)[C@H](CCC(=O)O)NC(=O)[C@H](CC(C)C)NC(=O)C(C)(C)NC(=O)[C@@H](NC(=O)[C@H](CO)NC(=O)[C@H](Cc1ccc(O)cc1)NC(=O)[C@H](CC(=O)O)NC(=O)[C@H](CO)NC(=O)[C@@H](NC(=O)[C@H](Cc1ccccc1)NC(=O)[C@@H](NC(=O)CNC(=O)[C@H](CCC(=O)O)NC(=O)C(C)(C)NC(=O)[C@@H](N)Cc1ccc(O)cc1)[C@@H](C)O)[C@@H](C)O)[C@@H](C)CC)C(C)C)C(=O)N[C@@H](CC(N)=O)C(=O)N[C@@H](CCCCNC(=O)[C@@H](N)CCCCNC(=O)CC[C@H](NC(=O)CC[C@H](NC(=O)CC[C@H](NC(=O)CC[C@H](NC(=O)CC[C@H](NC(=O)CC[C@H](NC(=O)CC[C@H](NC(=O)CCCCCCCCCCCCCCCCC(=O)O)C(=O)O)C(=O)O)C(=O)O)C(=O)O)C(=O)O)C(=O)O)C(=O)O)C(=O)NC(C)(C)C(=O)N[C@H](C(=O)N[C@@H](CCCNC(=N)N)C(=O)N[C@@H](CCC(N)=O)C(=O)N[C@@H](CCCNC(=N)N)C(=O)N[C@@H](Cc1ccc(O)cc1)C(N)=O)[C@@H](C)O [Compound 121, Y-Aib-E-G-T-F-T-S-D-Y-S-I-Aib-L-E-K-Q-A-Q-Aib-A-F-V-R-H-L-I-N-K(1,3)-Aib-T-R-Q-R-Y-NH2.C18DA-gGlu-gGlu-gGlu-gGlu-gGlu-gGlu-gGlu-eLys(1,2)] | 400 | 4200 | 10 | 200 | 2800 | – | – | –
2 | CC[C@H](C)[C@H](NC(=O)[C@H](CC(C)C)NC(=O)[C@H](Cc1c[nH]cn1)NC(=O)[C@H](CCCNC(=N)N)NC(=O)[C@@H](NC(=O)[C@H](Cc1ccccc1)NC(=O)[C@H](C)NC(=O)C(C)(C)NC(=O)[C@H](CCC(N)=O)NC(=O)[C@H](C)NC(=O)[C@H](CCC(N)=O)NC(=O)[C@H](CCCCN)NC(=O)[C@H](CCC(=O)O)NC(=O)[C@H](CC(C)C)NC(=O)C(C)(C)NC(=O)[C@@H](NC(=O)[C@H](CO)NC(=O)[C@H](Cc1ccc(O)cc1)NC(=O)[C@H](CC(=O)O)NC(=O)[C@H](CO)NC(=O)[C@@H](NC(=O)[C@H](Cc1ccccc1)NC(=O)[C@@H](NC(=O)CNC(=O)[C@H](CCC(=O)O)NC(=O)C(C)(C)NC(=O)[C@@H](N)Cc1ccc(O)cc1)[C@@H](C)O)[C@@H](C)O)[C@@H](C)CC)C(C)C)C(=O)N[C@@H](CC(N)=O)C(=O)N[C@@H](CCCCNC(=O)CC[C@H](NC(=O)CC[C@H](NC(=O)CC[C@H](NC(=O)CC[C@H](NC(=O)CCCCCCCCCCCCCCCCC(=O)O)C(=O)O)C(=O)O)C(=O)O)C(=O)O)C(=O)NC(C)(C)C(=O)N[C@H](C(=O)N[C@@H](CCCNC(=N)N)C(=O)N[C@@H](CCC(N)=O)C(=O)N[C@@H](CCCNC(=N)N)C(=O)N[C@@H](Cc1ccc(O)cc1)C(N)=O)[C@@H](C)O [Compound 77, Y-Aib-E-G-T-F-T-S-D-Y-S-I-Aib-L-E-K-Q-A-Q-Aib-A-F-V-R-H-L-I-N-K(1,3)-Aib-T-R-Q-R-Y-NH2.C18DA-gGlu-gGlu-gGlu-gGlu(1,2)] | 400 | 400 | 7.4 | 300 | – | 1800 | – | –
3 | CC[C@H](C)[C@H](NC(=O)[C@H](CC(C)C)NC(=O)[C@H](Cc1c[nH]cn1)NC(=O)[C@H](CCCNC(=N)N)NC(=O)[C@@H](NC(=O)[C@H](Cc1ccccc1)NC(=O)[C@H](C)NC(=O)C(C)(C)NC(=O)[C@H](CCC(=O)O)NC(=O)[C@H](C)NC(=O)[C@H](CCC(N)=O)NC(=O)[C@H](CCCCN)NC(=O)[C@H](CCC(=O)O)NC(=O)[C@H](CC(C)C)NC(=O)C(C)(C)NC(=O)[C@@H](NC(=O)[C@H](CO)NC(=O)[C@H](Cc1ccc(O)cc1)NC(=O)[C@H](CC(=O)O)NC(=O)[C@H](CO)NC(=O)[C@@H](NC(=O)[C@H](Cc1ccccc1)NC(=O)[C@@H](NC(=O)CNC(=O)[C@H](CCC(=O)O)NC(=O)C(C)(C)NC(=O)[C@@H](N)Cc1ccc(O)cc1)[C@@H](C)O)[C@@H](C)O)[C@@H](C)CC)C(C)C)C(=O)N[C@@H](CC(N)=O)C(=O)N[C@@H](CCCCNC(=O)[C@@H](N)CCCCNC(=O)CC[C@H](NC(=O)CC[C@H](NC(=O)CC[C@H](NC(=O)CC[C@H](NC(=O)CC[C@H](NC(=O)CC[C@H](NC(=O)CCCCCCCCCCCCCCCCC(=O)O)C(=O)O)C(=O)O)C(=O)O)C(=O)O)C(=O)O)C(=O)O)C(=O)NC(C)(C)C(=O)N[C@H](C(=O)N[C@@H](CCCNC(=N)N)C(=O)N[C@@H](CCC(N)=O)C(=O)N[C@@H](CCCNC(=N)N)C(=O)N[C@@H](Cc1ccc(O)cc1)C(N)=O)[C@@H](C)O [Compound 10, Y-Aib-E-G-T-F-T-S-D-Y-S-I-Aib-L-E-K-Q-A-E-Aib-A-F-V-R-H-L-I-N-K(1,3)-Aib-T-R-Q-R-Y-NH2.C18DA-gGlu-gGlu-gGlu-gGlu-gGlu-gGlu-eLys(1,2)] | – | 3800 | 7.3 | 600 | – | – | 28200 | –
4 | CC[C@H](C)[C@H](NC(=O)[C@H](CC(C)C)NC(=O)[C@H](Cc1c[nH]cn1)NC(=O)[C@H](CCCNC(=N)N)NC(=O)[C@@H](NC(=O)[C@H](Cc1ccccc1)NC(=O)[C@H](C)NC(=O)C(C)(C)NC(=O)[C@H](CCC(N)=O)NC(=O)[C@H](C)NC(=O)[C@H](CCC(N)=O)NC(=O)[C@H](CCCCN)NC(=O)[C@H](CCC(=O)O)NC(=O)[C@H](CC(C)C)NC(=O)C(C)(C)NC(=O)[C@@H](NC(=O)[C@H](CO)NC(=O)[C@H](Cc1ccc(O)cc1)NC(=O)[C@H](CC(=O)O)NC(=O)[C@H](CO)NC(=O)[C@@H](NC(=O)[C@H](Cc1ccccc1)NC(=O)[C@@H](NC(=O)CNC(=O)[C@H](CCC(=O)O)NC(=O)C(C)(C)NC(=O)[C@@H](N)Cc1ccc(O)cc1)[C@@H](C)O)[C@@H](C)O)[C@@H](C)CC)C(C)C)C(=O)N[C@@H](CC(N)=O)C(=O)N[C@@H](CCCCNC(=O)CCCCCNC(=O)CC[C@H](NC(=O)CC[C@H](NC(=O)CC[C@H](NC(=O)CC[C@H](NC(=O)CC[C@H](NC(=O)CC[C@H](NC(=O)CCCCCCCCCCCCCCCCC(=O)O)C(=O)O)C(=O)O)C(=O)O)C(=O)O)C(=O)O)C(=O)O)C(=O)NC(C)(C)C(=O)N[C@H](C(=O)N[C@@H](CCCNC(=N)N)C(=O)N[C@@H](CCC(N)=O)C(=O)N[C@@H](CCCNC(=N)N)C(=O)N[C@@H](Cc1ccc(O)cc1)C(N)=O)[C@@H](C)O [Compound 9, Y-Aib-E-G-T-F-T-S-D-Y-S-I-Aib-L-E-K-Q-A-Q-Aib-A-F-V-R-H-L-I-N-K(1,3)-Aib-T-R-Q-R-Y-NH2.C18DA-gGlu-gGlu-gGlu-gGlu-gGlu-gGlu-AHX(1,2)] | – | – | 7.5 | – | – | – | – | 4700
